The values that follow come from patent US4604236A, “Calcitonin analogs” (priority 1985, dated 1986).

Assay [1] deals with serum calcium concentration. The assay is described as follows: Biological assay of calcitonin analogs in vivo: reduction of serum calcium concentration versus salmon calcitonin standard, 2×2 parallel line assay. Set-up: species or system Rats. The following applies: standard used in the assay, independently determined. As for the experimental part: The biological potency of des-13-serine-salmon calcitonin was determined by comparing the reduction of serum calcium concentration which followed administration by graded doses of des-Ser^13 -SCT and synthetic salmon calcitonin standard. Rats were divided into four groups of seven animals, and each group was assigned at random to a dose of standard or test solution. Low and high doses were chosen from the linear portion of the dose-response curve. For the salmon calcitonin standard, the values were 0.7 and 2.1 ng. peptide/100 g. body weight (BW). This dose approximates 3 and 9 MU/100 g. BW. Peptides were given by subcutaneous injection (0.2 ml/100 g. BW) and blood was withdrawn 1 hour later for serum calcium determination. Sera are processed and analyzed within two hours of collection. […]. Results were analyzed by a 2×2 parallel line assay [Gaddum, J. H., J. Pharm. Pharmacol., 6, 345 (1953)]. The standard salmon calcitonin used was independently determined to contain greater than 4,000 IU/mg. des-Ser^13 -SCT assayed at 4650 IU/mg.

For assay [2] the following is noted: literature values; cited from earlier work.

Regarding `CC(C)C[C@H](NC(=O)[C@H](CCCCN)NC(=O)CNC(=O)[C@H](CC(C)C)NC(=O)[C@@H](NC(=O)[C@@H]1CSSC[C@H](N)C(=O)N[C@@H](CO)C(=O)N[C@@H](CC(N)=O)C(=O)N[C@@H](CC(C)C)C(=O)N[C@@H](CO)C(=O)N[C@@H]([C@@H](C)O)C(=O)N1)C(C)C)C(=O)N[C@@H](CO)C(=O)N[C@@H](CCC(N)=O)C(=O)N[C@@H](CCC(=O)O)C(=O)N[C@@H](CC(C)C)C(=O)N[C@@H](Cc1c[nH]cn1)C(=O)N[C@@H](CCCCN)C(=O)N[C@@H](CC(C)C)C(=O)N[C@@H](CCC(N)=O)C(=O)N[C@H](C(=O)N[C@@H](Cc1ccc(O)cc1)C(=O)N1CCC[C@H]1C(=O)N[C@@H](CCCNC(=N)N)C(=O)N[C@H](C(=O)N[C@@H](CC(N)=O)C(=O)N[C@H](C(=O)NCC(=O)N[C@@H](CO)C(=O)NCC(=O)N[C@H](C(=O)N1CCC[C@H]1C(N)=O)[C@@H](C)O)[C@@H](C)O)[C@@H](C)O)[C@@H](C)O` [standard salmon calcitonin, salmon calcitonin], the “potency content of the standard salmon calcitonin” value in assay [1] is “greater than 4,000 IU/mg”.
For the compound “eel calcitonin [synthetic eel calcitonin]”, the hypocalcemic potency result in assay [2] is recorded as “around 4300 IU/mg”.
“(1,7-α-L-aminosuberic acid)eel calcitonin”: in assay [2], the hypocalcemic potency entry was “about 3400 IU/mg”.
